“Also recorded” adds a separate entry of the source. Where a SMILES comes first, the peptide text is derived from it.
What was measured:
[1] = test system: carboxypeptidase B and carboxypeptidase Y; assay: Carboxypeptidase digestion; assay type: in vitro ADME
Description: Carboxypeptidase assays were done in 50 μL of 50 mM sodium acetate, pH 6.0 with 1 unit each of carboxypeptidase B and carboxypeptidase Y. Reactions were incubated overnight at 20° C. for 16 hours and then quenched with 1% formic acid. An aliquot of the reaction was then injected onto LC-MS to compare with an untreated control.

[2] = test system: Enterobacter cloacae BIDMC120; details: strain BIDMC120; cited from earlier work
[3] = test system: Enterobacter hormaechei BIDMC87; details: strain BIDMC87; cited from earlier work
[4] = test system: Enterobacter hormaechei BWH39; details: strain BWH39; cited from earlier work
[5] = test system: Enterobacter cloacae MGH3; details: strain MGH3; cited from earlier work
[6] = test system: Enterobacter hormaechei UCI35; details: strain UCI35; cited from earlier work
[7] = test system: Enterobacter kobei MGH178; details: strain MGH178; cited from earlier work
[8] = test system: Enterobacter ludwigii MGH216; details: strain MGH216; cited from earlier work
[9] = test system: Enterobacter roggenkampii MGH239; details: strain MGH239; cited from earlier work
[10] = test system: Enterobacter asburiae MGH243; details: strain MGH243; cited from earlier work
[11] = test system: Enterobacter cloacae UCI102; details: strain UCI102; cited from earlier work
[12] = test system: Enterobacter asburiae UCI193; details: strain UCI193; cited from earlier work
Thermolysin = biological target: T1, Thermolysin (Geobacillus stearothermophilus, UniProt P43133); assay: Protease digestion, thermolysin; assay type: in vitro ADME; details: 50 μM peptide, 30° C., about 1 hour, LC-MS
T1 construct: purchased Sigma-Aldrich
Description: Thermolysin from Geobacillus stearothermophilus (Sigma-Aldrich) was first resuspended in 50 mM Tris, 0.5 mM CaCl2). The enzyme was then added to 50 μM peptide samples at a final concentration of about 0.04 mg/mL in a buffer of 50 mM Tris, 0.5 mM CaCl2), pH 8. The reactions were then allowed to incubate at 30° C. for about 1 hour before quenching with 1% formic acid. An aliquot was then injected onto LC-MS for analysis.

[13] = Stability of variants: threaded-to-unthreaded peptide in supernatant extract by LC-MS; assay type: physicochemical; details: for Stability Relative to WT: ratio of threaded-to-unthreaded peptide in supernatant extract after purification; for threaded versus unthreaded peptide in supernatant extract (stability against unthreading): heating and carboxypeptidase assays, compared with wild-type
[14] = test system: Enterobacter amnigenus ATCC 33072; assay type: cell-based; details: against Enterobacter amnigenus (FIG. 28, peptides at 10 μM; Y10A FIG. 34)
Description: Cloacaenodin was evaluated against several common laboratory strains as well as commercially acquired strains using a spot-on-lawn assay.^45 Strains were streaked out onto LB agar plates and incubated overnight at their recommended temperatures. A single colony was then used to inoculate an overnight culture in 5 mL of LB broth. After shaking at 250 rpm at the recommended temperature for each strain, 50 μL of the overnight culture was used to inoculate 5 mL of LB broth (volume ratio 1:100). These cultures were grown for a few hours until they reached the exponential phase (OD600˜0.4-0.6) before being added to 10 mL of soft M63 agar at a final cell density of 10^7 CFUs/mL, or 10^8 CFUs total in 10 mL. The M63 soft agar was composed of 2 g/L of (NH4)2SO4 (EMD MilliporeSigma), 13.6 g/L of KH2PO4 (Fisher), 40 mg/L of each of the 20 common amino acids, 0.2% glucose (Sigma), 0.00005% w/v thiamine hydrochloride (Sigma), and 0.65% w/v bacteriological-grade agar (Apex Bioresearch). […] Upon solidification, 10 μL of purified cloacaenodin in water at two-fold dilutions were then spotted onto the agar and allowed to dry. The plates were incubated overnight at the strains' recommended temperatures and analyzed the next morning for activity. The MIC is defined as the last dilution where a spot was visible.

[15] = test system: Escherichia coli XL-1 Blue; assay: Intracellular toxicity: IPTG-induced expression from plasmid lacking cloD; assay type: cell-based; details: IPTG induction
Description: After characterizing the structure and proteolytic resistance of cloacaenodin, cloacaenodin's inhibition of bacterial growth was tested. As a preliminary test of antimicrobial activity, a version of the expression plasmid from which the cloD gene was removed was cloned, so that the lasso peptide could not be exported by the Escherichia coli upon isopropyl β-D-1-thiogalactopyranoside (IPTG)-induced expression.
Cloacaenodin variants were constructed using site-directed mutagenesis. Mutant precursor genes were amplified from the wild-type precursor in pAK2 using mutagenic primers. Following PCR amplification of the mutated precursor gene, the purified PCR product was digested and ligated into pAK2 with the EcoRI and HindIII restriction sites. For the pMP3 plasmid for deletion of the cloD gene, the D gene was first disrupted by digestion of pAK2 with BamHI and NcoI, which removed the entire cloD gene and the C-terminal portion of the cloC gene. The digested plasmid was then ligated with an insert that restored the C-terminal portion of the cloC gene. All mutants were sequence confirmed by Genewiz (now Azenta) before use.

T1 sequence (P43133 236-551): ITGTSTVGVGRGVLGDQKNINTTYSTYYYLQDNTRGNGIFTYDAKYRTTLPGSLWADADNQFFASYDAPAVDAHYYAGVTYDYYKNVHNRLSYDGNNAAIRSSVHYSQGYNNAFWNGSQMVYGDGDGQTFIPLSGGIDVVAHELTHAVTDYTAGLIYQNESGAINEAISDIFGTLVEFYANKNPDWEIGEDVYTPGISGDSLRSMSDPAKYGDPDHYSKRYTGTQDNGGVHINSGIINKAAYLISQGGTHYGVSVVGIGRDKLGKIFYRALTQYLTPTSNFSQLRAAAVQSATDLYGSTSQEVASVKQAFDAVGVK

For `CC[C@H](C)[C@@H]1NC(=O)[C@H](CCCNC(=N)N)NC(=O)[C@H](CC(=O)O)NC(=O)[C@H](C(C)C)NC(=O)[C@H](CO)NC(=O)[C@H](Cc2c[nH]cn2)NC(=O)CNC(=O)CC[C@@H](C(=O)N[C@@H](Cc2ccc(O)cc2)C(=O)N[C@@H](Cc2ccccc2)C(=O)NCC(=O)N2CCC[C@H]2C(=O)N2CCC[C@H]2C(=O)NCC(=O)N[C@@H](CC(C)C)C(=O)N2CCC[C@H]2C(=O)NCC(=O)N2CCC[C@H]2C(=O)N[C@H](C(=O)N[C@@H](CC(C)C)C(=O)N[C@@H](Cc2ccccc2)C(=O)N[C@@H](Cc2ccc(O)cc2)C(=O)NCC(=O)O)C(C)C)NC(=O)[C@@H]2CCCN2C1=O` [Cloacaenodin S24G] (HELM PEPTIDE1{G.H.S.V.D.R.I.P.E.Y.F.G.P.P.G.L.P.G.P.V.L.F.Y.G}$PEPTIDE1,PEPTIDE1,1:R1-9:R3$$$V2.0; C-terminus assumed; bridges inferred), the proteolysis by carboxypeptidase ([1]; pH 6) was “susceptibility to carboxypeptidase”.

For `C[C@@H](O)[C@H]1C(=O)N2C(C(=O)O)=C(S[C@@H]3CN[C@H](C(=O)N(C)C)C3)[C@H](C)[C@H]12` [Meropenem], the “Meropenem MIC” value [2] is listed as 4 µg/mL, the “Meropenem MIC” value [3] is listed as 16 µg/mL and the “Meropenem MIC” value [4] is listed as 2 µg/mL. For the same molecule, the “Meropenem MIC” value [5] was ≥16 µg/mL, the “Meropenem MIC” value [6] was 4 µg/mL and the “Meropenem MIC” value [7] was ≤0.25 µg/mL. The “Meropenem MIC” value [8] was ≤0.25 µg/mL, the “Meropenem MIC” value [9] was 1 µg/mL and the “Meropenem MIC” value [10] was 16 µg/mL. The “Meropenem MIC” value [11] was 0.063 µg/mL and the “Meropenem MIC” value [12] was 23 µg/mL.

For `CC[C@H](C)[C@@H]1NC(=O)[C@H](CCCNC(=N)N)NC(=O)[C@H](CC(=O)O)NC(=O)[C@H](C(C)C)NC(=O)[C@H](CO)NC(=O)[C@H](Cc2c[nH]cn2)NC(=O)CNC(=O)CC[C@@H](C(=O)N[C@@H](Cc2ccc(O)cc2)C(=O)N[C@@H](Cc2ccccc2)C(=O)NCC(=O)N2CCC[C@H]2C(=O)N2CCC[C@H]2C(=O)NCC(=O)N[C@@H](CC(C)C)C(=O)N2CCC[C@H]2C(=O)NCC(=O)N2CCC[C@H]2C(=O)N[C@H](C(=O)N[C@@H](CC(C)C)C(=O)N[C@@H](Cc2ccccc2)C(=O)N[C@@H](Cc2ccc(O)cc2)C(=O)N[C@@H](CO)C(=O)O)C(C)C)NC(=O)[C@@H]2CCCN2C1=O` [unthreaded cloacaenodin] (HELM PEPTIDE1{G.H.S.V.D.R.I.P.E.Y.F.G.P.P.G.L.P.G.P.V.L.F.Y.S}$PEPTIDE1,PEPTIDE1,1:R1-9:R3$$$V2.0; C-terminus assumed; bridges inferred), the proteolysis by thermolysin (Thermolysin) was “cleavage of the unthreaded peptide both in its linear and ring segments; also recorded: can be cleaved by thermolysin”.

In the case of “GHSVADRIPEYFGPPGLPGPVLFYS [Cloacaenodin 10-membered ring]”, the proteolysis by carboxypeptidase ([1]; carboxypeptidase B and Y, pH 6.0, 20° C., 16 hours, LC-MS) was “susceptible to degradation by carboxypeptidase” and the “Stability Relative to WT” value [13] was “Less”.

In the case of “GHSVDRIAEYFGPPGLPGPVLFYS [Cloacaenodin P8A, 109]”, the “threaded versus unthreaded peptide in supernatant extract (stability against unthreading)” value [13] was “a dramatic decrease in the ratio of threaded-to-unthreaded peptide in the extract for a cloacaenodin P8A variant (FIG. 32) was not observed” and the “Stability Relative to WT” value [13] was “Comparable”.

With “GHSVDRIPEAFGPPGLPGPVLFYS [Cloacaenodin Y10A, 118]” the “Bioactivity Relative to WT” value [14] was “Much less”, the “intracellular toxicity (growth of E. coli on IPTG without CloD)” value [15] was “not toxic intracellularly” and the “intracellular toxicity (growth of E. coli on IPTG without CloD)” value ([15]; listed as Y10A) was “cells could still grow”.

With “GHSVDRIPEYFGPPGLPGPVLFYA [Cloacaenodin S24A, 113]” the “Bioactivity Relative to WT” value [14] was “Comparable”.

With “GHSVDRIPEYFGPPGLPGPVLFYC [Cloacaenodin S24C, 117]” the “Bioactivity Relative to WT” value [14] was “Less”.

In the case of “GHSVDRIPEYFGPPGLPGPVLFYT [Cloacaenodin S24T, 116]”, the “Bioactivity Relative to WT” value [14] was “Less”.

For “GHSVDRIPEYFGPPGLPGPVLFYY [Cloacaenodin S24Y, 114]”, the “Bioactivity Relative to WT” value [14] was “Comparable”.

For “GHSVDRIPEYFGPPGLPGPVLWYS [Cloacaenodin F22W]”, the “Bioactivity Relative to WT” value [14] was “Comparable”, the “threaded versus unthreaded peptide in supernatant extract (stability against unthreading)” value [13] was “comparable levels of unthreaded peptide” and the “Stability Relative to WT” value [13] was “Comparable”.

— US20260092086A1, “ANTIMICROBIAL LASSO PEPTIDES” (priority 2022, published 2026)
